We go through 1 compound from patent US11787839B2, “Targeting α2δ-1-bound glutamate receptors for treating diseases and disorders” (Board of Regents, The University of Texas System, priority 2017, dated 2023).

The target in series [1] is presynaptic NMDARs of spinal lamina II neurons (Rattus norvegicus, UniProt P35439+Q00959+Q00960).
Another series concerns WT mice. Briefly: Paclitaxel-induced pain hypersensitivity in mice. Type of series: in vivo, mouse. Here is the method:
To induce neuropathic pain, rats and mice were intraperitoneally injected with paclitaxel (2 mg/kg; TEVA Pharmaceuticals, North Wales, Pa.) every 2 days for a total of 4 injections (days 1, 3, 5 and 7; total dose, 8 mg/kg), as described previously (Polomano et al., 2001). Animals in the control group were intraperitoneally injected with the vehicle (Cremophor EL/ethanol, 1:1) on the same 4 days. The presence of tactile allodynia was confirmed 10 to 12 days after drug treatment. Intrathecal catheters were implanted in some paclitaxel-treated rats during isoflurane-induced anesthesia. […]
(§1) To assess the thermal sensitivity of rats, the were placed individually on the glass surface of a thermal testing apparatus (IITC Life Sciences, Woodland Hills, Calif.). […] The paw withdrawal latency was recorded with a timer, and the hindpaw was tested twice to obtain an average time. […] After the threshold temperature was recorded, the mice were immediately removed from the plate. The heat threshold measurement was repeated 30 min later, and the average of the 2 recorded temperatures was considered as the heat threshold. The cold threshold was measured by cooling the plate from 30° C. at a rate of 6° C./min until nocifensive behaviors were observed. […]

The test system of a further series is α2δ-1. Briefly: α2δ-1 expression, α2δ-1-GluN1 complex and synaptosomal proteins after paclitaxel. Format: in vivo, rat. The following applies: paclitaxel- vs vehicle-treated rats. The procedure: (§2) To induce neuropathic pain, rats and mice were intraperitoneally injected with paclitaxel (2 mg/kg; TEVA Pharmaceuticals, North Wales, Pa.) every 2 days for a total of 4 injections (days 1, 3, 5 and 7; total dose, 8 mg/kg), as described previously (Polomano et al., 2001). Animals in the control group were intraperitoneally injected with the vehicle (Cremophor EL/ethanol, 1:1) on the same 4 days. The presence of tactile allodynia was confirmed 10 to 12 days after drug treatment. Intrathecal catheters were implanted in some paclitaxel-treated rats during isoflurane-induced anesthesia. Briefly, a small puncture was made in the atlanto-occipital membrane of the cisterna magna and inserted a PE-10 catheter with the caudal tip reaching the lumbar enlargement of the spinal cord (Chen et al., 2014a; Xie et al., 2016).
Quantitative PCR: Rats were deeply anesthetized with 5% isoflurane, and the DRG and dorsal half of spinal cord tissues at the L5 and L6 levels were removed. Total RNA was extracted from the DRG and spinal cord tissues using TRIsure (Cat. #BIO-38032, Bioline, Taunton, Mass.). After treatment with RNase-free DNase (Cat. #79254, QIAGEN, Hilden, Germany), 500 ng RNA was used for reverse transcription with a RevertAid RT Reverse Transcription Kit (Cat. #K1619, Thermo Fisher Scientific, Waltham, Mass.). One μL of 5-times diluted cDNA was added to a 10-μL reaction volume with SYBR Green Real-Time PCR Mix (Cat. #A25780, Thermo Fisher Scientific). Real-time PCR was performed using a QuantStudio 7 Flex Real-Time PCR System (Applied Biosystems, Waltham, Mass.). The thermal cycling conditions used were: 1 cycle at 95° C. for 10 min, 40 cycles at 95° C. for 15 s, and 60° C. for 60 s. The following primers were used: α2δ-1 forward, […] (SEQ ID NO:60); α2δ-1 reverse, […] (SEQ ID NO:61); α2δ-2 forward, […] (SEQ ID NO:62); α2δ-2 reverse, […] (SEQ ID NO:63); α2δ-3 forward, […] (SEQ ID NO:64); α2δ-3 reverse, […] (SEQ ID NO:65); Gapdh forward, […] (SEQ ID NO:66); Gapdh reverse. […] (SEQ ID NO:67). Relative mRNA levels were calculated using the 2−ΔΔCT method and normalized to the Gapdh level in the same sample.
Coimmunoprecipitation using spinal cord tissue membrane extracts: Tissues from the dorsal halves of the rat spinal cord at the L5 and L6 levels were collected under isoflurane anesthesia and homogenized in ice-cold hypotonic buffer (20 mM Tris [pH 7.4], 1 mM CaCl2), 1 mM MgCl2, and protease inhibitors) for extracting membrane proteins. The nuclei and unbroken cells were removed by centrifugation at 300×g for 5 min, and the supernatant was centrifuged for 20 min at 21,000×g. The pellets were re-suspended and solubilized in immunoprecipitation buffer (50 mM Tris [pH7.4], 250 mM NaCl, 10% glycerol, 0.5% NP-40, 20 mM NaF, 1 mM Na3VO4, 10 mM N-ethylmaleimide, 1 mM phenylmethylsulfonyl fluoride, 2 mM benzamide, and protease inhibitors), and the soluble fraction was incubated at 4° C. overnight with Protein A/G beads ([…], Millipore, Darmstadt, Germany) prebound to mouse anti-GluN1 antibody (#75-272, 1:1000, NeuroMab, Davis, Calif.). Protein A/G beads prebound to mouse IgG were uses as the control. All samples were washed 3 times with immunoprecipitation buffer and then immunoblotted with rabbit anti-α2δ-1 (#ACC-015, 1:500, Alomone Labs, Jerusalem, Israel) and rabbit anti-GluN1 antibodies (#G8913, 1:1,000, Sigma-Aldrich, St. Louis, Mo.). The amount of the α2δ-1-GluN1 protein complex was calculated by normalizing the amount of α2δ-1 to that of GluN1 on the same gel. […]

A further series relates to paclitaxel-treated rats. The series is described as follows: Paclitaxel-induced pain hypersensitivity in rats. Format: in vivo, rat. Conditions: paclitaxel- vs vehicle-treated rats. The procedure: as §2
Behavioral assessment of nociception: To measure tactile allodynia, mice or rats were individually placed on a mesh floor within a suspended chamber. […]
To quantify the mechanical nociceptive threshold in rats, the paw pressure (Randall-Selitto) test was conducted on the left hindpaw using an analgesiometer (Ugo Basile, Varese, Italy). […] When the rat withdrew its paw or vocalized, the pedal was immediately released, and the withdrawal threshold was recorded (Chen et al., 2014a). […]
as §1

Sequence of presynaptic NMDARs of spinal lamina II neurons (Q00959 20-1464 limits assumed, other chains not shown): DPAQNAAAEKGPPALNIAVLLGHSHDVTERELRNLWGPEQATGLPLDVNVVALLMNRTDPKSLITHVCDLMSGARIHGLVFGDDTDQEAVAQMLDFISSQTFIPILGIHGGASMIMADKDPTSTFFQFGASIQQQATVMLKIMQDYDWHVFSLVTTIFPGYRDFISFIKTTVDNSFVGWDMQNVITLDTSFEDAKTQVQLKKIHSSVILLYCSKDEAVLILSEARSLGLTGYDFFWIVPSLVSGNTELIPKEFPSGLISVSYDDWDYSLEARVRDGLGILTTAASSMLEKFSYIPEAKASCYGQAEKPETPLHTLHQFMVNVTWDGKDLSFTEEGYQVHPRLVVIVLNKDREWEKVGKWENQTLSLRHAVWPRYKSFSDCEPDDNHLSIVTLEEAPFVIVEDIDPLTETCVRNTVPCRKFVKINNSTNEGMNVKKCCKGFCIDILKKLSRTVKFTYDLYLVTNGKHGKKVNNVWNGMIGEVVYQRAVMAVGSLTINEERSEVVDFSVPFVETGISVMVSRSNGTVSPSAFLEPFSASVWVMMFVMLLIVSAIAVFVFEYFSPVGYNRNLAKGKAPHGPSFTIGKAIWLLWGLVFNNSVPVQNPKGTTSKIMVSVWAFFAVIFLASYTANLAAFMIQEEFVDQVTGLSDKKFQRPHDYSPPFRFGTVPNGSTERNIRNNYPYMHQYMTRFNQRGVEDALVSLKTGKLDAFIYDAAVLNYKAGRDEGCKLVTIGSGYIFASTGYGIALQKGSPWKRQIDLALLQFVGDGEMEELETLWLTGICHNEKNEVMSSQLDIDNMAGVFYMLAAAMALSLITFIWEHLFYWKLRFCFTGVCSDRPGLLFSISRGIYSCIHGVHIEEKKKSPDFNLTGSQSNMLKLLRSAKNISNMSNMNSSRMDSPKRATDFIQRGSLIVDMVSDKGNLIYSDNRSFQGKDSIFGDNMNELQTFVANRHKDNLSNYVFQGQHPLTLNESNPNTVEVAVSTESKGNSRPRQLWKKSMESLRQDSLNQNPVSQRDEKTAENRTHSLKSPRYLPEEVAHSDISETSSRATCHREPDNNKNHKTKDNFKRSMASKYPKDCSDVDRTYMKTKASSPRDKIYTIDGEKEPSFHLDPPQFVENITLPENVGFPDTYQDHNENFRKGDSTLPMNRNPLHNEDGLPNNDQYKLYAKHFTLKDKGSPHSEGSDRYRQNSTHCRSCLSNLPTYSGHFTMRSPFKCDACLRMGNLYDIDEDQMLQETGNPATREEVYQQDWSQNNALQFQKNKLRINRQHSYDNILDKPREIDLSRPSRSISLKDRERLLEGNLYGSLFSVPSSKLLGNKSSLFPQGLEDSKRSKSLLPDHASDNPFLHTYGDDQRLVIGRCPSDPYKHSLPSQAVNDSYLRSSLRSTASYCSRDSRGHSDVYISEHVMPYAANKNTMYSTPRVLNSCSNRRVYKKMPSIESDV
Sequence of presynaptic NMDARs of spinal lamina II neurons (Q00960 27-1482, other chains not shown): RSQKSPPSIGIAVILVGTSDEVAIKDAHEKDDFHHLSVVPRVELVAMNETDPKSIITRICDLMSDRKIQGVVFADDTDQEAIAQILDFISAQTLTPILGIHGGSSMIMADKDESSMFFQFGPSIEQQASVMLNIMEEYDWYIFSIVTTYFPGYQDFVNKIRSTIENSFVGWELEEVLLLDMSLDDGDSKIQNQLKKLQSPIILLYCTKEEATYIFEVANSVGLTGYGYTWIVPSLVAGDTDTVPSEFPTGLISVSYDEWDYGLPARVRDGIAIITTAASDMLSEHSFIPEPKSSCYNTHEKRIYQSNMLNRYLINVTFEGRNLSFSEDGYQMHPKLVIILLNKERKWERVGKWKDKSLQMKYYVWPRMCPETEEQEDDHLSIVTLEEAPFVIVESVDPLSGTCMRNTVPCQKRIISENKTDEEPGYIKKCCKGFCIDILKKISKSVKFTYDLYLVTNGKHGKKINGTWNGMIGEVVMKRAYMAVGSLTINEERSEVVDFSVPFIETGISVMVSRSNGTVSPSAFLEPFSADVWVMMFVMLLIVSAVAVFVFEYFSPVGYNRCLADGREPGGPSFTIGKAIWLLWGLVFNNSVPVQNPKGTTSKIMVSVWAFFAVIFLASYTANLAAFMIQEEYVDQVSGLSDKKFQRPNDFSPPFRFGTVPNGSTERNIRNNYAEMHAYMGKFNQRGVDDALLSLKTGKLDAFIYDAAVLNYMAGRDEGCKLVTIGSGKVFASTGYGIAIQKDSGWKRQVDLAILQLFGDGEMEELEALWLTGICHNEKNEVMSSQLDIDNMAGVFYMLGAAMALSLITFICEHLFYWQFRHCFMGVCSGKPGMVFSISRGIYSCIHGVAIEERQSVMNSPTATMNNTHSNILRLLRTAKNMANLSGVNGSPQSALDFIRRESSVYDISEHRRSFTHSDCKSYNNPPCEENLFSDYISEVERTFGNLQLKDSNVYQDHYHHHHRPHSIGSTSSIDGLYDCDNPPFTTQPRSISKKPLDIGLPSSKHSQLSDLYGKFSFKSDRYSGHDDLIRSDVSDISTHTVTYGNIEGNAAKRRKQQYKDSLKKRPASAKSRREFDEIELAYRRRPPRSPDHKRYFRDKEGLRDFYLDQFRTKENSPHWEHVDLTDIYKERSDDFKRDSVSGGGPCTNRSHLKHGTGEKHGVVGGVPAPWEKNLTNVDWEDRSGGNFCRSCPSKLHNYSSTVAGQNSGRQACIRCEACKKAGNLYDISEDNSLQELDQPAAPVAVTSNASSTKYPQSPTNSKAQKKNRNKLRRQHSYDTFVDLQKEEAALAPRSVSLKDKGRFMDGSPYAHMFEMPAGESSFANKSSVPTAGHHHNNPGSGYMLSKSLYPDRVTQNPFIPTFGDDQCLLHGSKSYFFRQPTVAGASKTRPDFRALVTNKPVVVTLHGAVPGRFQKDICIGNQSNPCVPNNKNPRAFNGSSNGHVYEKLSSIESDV

In the case of `CC(=O)O[C@H]1C(=O)[C@@]2(C)[C@H]([C@H](OC(=O)c3ccccc3)[C@]3(O)C[C@H](OC(=O)[C@H](O)[C@@H](NC(=O)c4ccccc4)c4ccccc4)C(C)=C1C3(C)C)[C@]1(OC(C)=O)CO[C@@H]1C[C@@H]2O` [paclitaxel], in series [1], the “baseline amplitude of evoked monosynaptic EPSCs” value is given as “significantly larger”, the “baseline frequency of mEPSCs in lamina II neurons” value is recorded as “significantly higher” and the “paired-pulse ratio (PPR) in lamina II neurons” value was “significantly reduced”. Further, in the series on WT mice, the “duration of hypersensitivity after the last injection” value is given as “at least 10 days”; the “pain hypersensitivity after systemic paclitaxel” value was “induced tactile allodynia and heat and cold hyperalgesia”. In the series with α2δ-1, the “mRNA level of α2δ-2 or α2δ-3 in the DRG and dorsal spinal cord” value is “similar”; the “α2δ-1-GluN1 complex in the dorsal spinal cord” value is listed as “significantly higher”; the “α2δ-1 and GluN1 protein levels in spinal synaptosomes” value is “significantly higher”; the “α2δ-1 mRNA levels in the DRG and dorsal spinal cord” value was “substantially higher”. In addition, in the series on α2δ-1, the “α2δ-1 protein levels in the DRG and spinal cord” value is listed as “much higher”. The “withdrawal thresholds to tactile, noxious pressure and noxious heat stimuli” value in the series with paclitaxel-treated rats is “lower withdrawal thresholds”.
